Assay results as given in PubChem BioAssay (NCI).
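Step 1: Grow cells in 96-well plates. Step 2: Expose to compound for 48 hours at 5 concentrations. Step 3: Interpolate endpoints linearly; if unreached, use highest concentration. GI50 = concentration required for 50% inhibition of growth. At the TGI there is no net growth.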

Legend:
Assay in all cases: inhibition of tumour cell growth, NCI panel, 48 h
SNB-19 CNS = test system: SNB-19 CNS
UACC-257 melanoma = test system: UACC-257 melanoma
PC-3 prostate = test system: PC-3 prostate
HOP-62 NSCLC = test system: HOP-62 NSCLC
HT29 colon = test system: HT29 colon
HS 578T breast = test system: HS 578T breast
MCF7 breast = test system: MCF7 breast
SK-MEL-28 melanoma = test system: SK-MEL-28 melanoma
SW-620 colon = test system: SW-620 colon
M14 melanoma = test system: M14 melanoma
HCT-15 colon = test system: HCT-15 colon
NCI-H23 lung = test system: NCI-H23 lung
IGROV1 ovarian = test system: IGROV1 ovarian
MDA-MB-231 breast = test system: MDA-MB-231 breast
SF-268 CNS = test system: SF-268 CNS
OVCAR-8 ovarian = test system: OVCAR-8 ovarian
UACC-62 melanoma = test system: UACC-62 melanoma
TK-10 renal = test system: TK-10 renal
SN12C renal = test system: SN12C renal
HCT-116 colon = test system: HCT-116 colon
SK-OV-3 ovarian = test system: SK-OV-3 ovarian
NCI-H226 lung = test system: NCI-H226 lung
DU-145 prostate = test system: DU-145 prostate
A549 NSCLC = test system: A549 NSCLC
786-0 renal = test system: 786-0 renal
A498 renal = test system: A498 renal
SK-MEL-2 melanoma = test system: SK-MEL-2 melanoma
COLO 205 colon = test system: COLO 205 colon
HL-60(TB) leukemia = test system: HL-60(TB) leukemia
ACHN renal = test system: ACHN renal
OVCAR-4 ovarian = test system: OVCAR-4 ovarian
NCI-H460 lung = test system: NCI-H460 lung
EKVX NSCLC = test system: EKVX NSCLC
CAKI-1 renal = test system: CAKI-1 renal
OVCAR-3 ovarian = test system: OVCAR-3 ovarian
T-47D breast = test system: T-47D breast
MALME-3M melanoma = test system: MALME-3M melanoma
BT-549 breast = test system: BT-549 breast
SK-MEL-5 melanoma = test system: SK-MEL-5 melanoma
U251 CNS = test system: U251 CNS
LOX IMVI melanoma = test system: LOX IMVI melanoma
NCI-H522 lung = test system: NCI-H522 lung
NCI/ADR-RES ovarian = test system: NCI/ADR-RES ovarian
UO-31 renal = test system: UO-31 renal
SF-539 CNS = test system: SF-539 CNS
SF-295 CNS = test system: SF-295 CNS
K-562 leukemia = test system: K-562 leukemia
SR leukemia = test system: SR leukemia
OVCAR-5 ovarian = test system: OVCAR-5 ovarian
HCC-2998 colon = test system: HCC-2998 colon
HOP-92 NSCLC = test system: HOP-92 NSCLC
KM12 colon = test system: KM12 colon
MOLT-4 leukemia = test system: MOLT-4 leukemia

## COc1ccc2c(c1)sc1nc(-c3ccccc3)c(-c3ccsc3)n12
SNB-19 CNS
  GI50: 6.9 µM
  TGI: > 100 µM
UACC-257 melanoma
  GI50: > 100 µM
  TGI: > 100 µM
PC-3 prostate
  GI50: 4.02 µM
  TGI: > 100 µM
HOP-62 NSCLC
  GI50: 7.86 µM
  TGI: > 100 µM
HT29 colon
  GI50: 2.95 µM
  TGI: 10.5 µM
HS 578T breast
  GI50: > 100 µM
  TGI: > 100 µM
MCF7 breast
  GI50: 3.78 µM
  TGI: > 100 µM
SK-MEL-28 melanoma
  GI50: 4.9 µM
  TGI: > 100 µM
SW-620 colon
  GI50: 3.84 µM
  TGI: > 100 µM
M14 melanoma
  GI50: 2.64 µM
  TGI: > 100 µM
HCT-15 colon
  GI50: 2.91 µM
  TGI: > 100 µM
NCI-H23 lung
  GI50: 4 µM
  TGI: > 100 µM
IGROV1 ovarian
  GI50: 6.53 µM
  TGI: > 100 µM
MDA-MB-231 breast
  GI50: 5.46 µM
  TGI: > 100 µM
SF-268 CNS
  GI50: 8.54 µM
  TGI: > 100 µM
OVCAR-8 ovarian
  GI50: 5.95 µM
  TGI: > 100 µM
UACC-62 melanoma
  GI50: 3.52 µM
  TGI: > 100 µM
TK-10 renal
  GI50: 37.7 µM
  TGI: > 100 µM
SN12C renal
  GI50: 12.1 µM
  TGI: > 100 µM
HCT-116 colon
  GI50: 4.18 µM
  TGI: > 100 µM
SK-OV-3 ovarian
  GI50: 3.48 µM
  TGI: 64.6 µM
NCI-H226 lung
  GI50: 2.17 µM
  TGI: 18.1 µM
DU-145 prostate
  GI50: 3.45 µM
  TGI: > 100 µM
A549 NSCLC
  GI50: 5.02 µM
  TGI: > 100 µM
786-0 renal
  GI50: 7.58 µM
  TGI: > 100 µM
A498 renal
  GI50: 6.26 µM
  TGI: > 100 µM
SK-MEL-2 melanoma
  GI50: 9.72 µM
  TGI: > 100 µM
COLO 205 colon
  GI50: 2.26 µM
  TGI: 6.38 µM
HL-60(TB) leukemia
  GI50: 3.95 µM
  TGI: 92.7 µM
ACHN renal
  GI50: 6.76 µM
  TGI: > 100 µM
OVCAR-4 ovarian
  GI50: 3.7 µM
  TGI: > 100 µM
NCI-H460 lung
  GI50: 4.45 µM
  TGI: > 100 µM
EKVX NSCLC
  GI50: 7.76 µM
  TGI: > 100 µM
CAKI-1 renal
  GI50: 5.04 µM
  TGI: > 100 µM
OVCAR-3 ovarian
  GI50: 2.15 µM
  TGI: 5.37 µM
T-47D breast
  GI50: 6.27 µM
  TGI: > 100 µM
MALME-3M melanoma
  GI50: > 100 µM
  TGI: > 100 µM
BT-549 breast
  GI50: 6.56 µM
  TGI: > 100 µM
SK-MEL-5 melanoma
  GI50: 3.34 µM
  TGI: 47.4 µM
U251 CNS
  GI50: 3.72 µM
  TGI: > 100 µM
LOX IMVI melanoma
  GI50: 5.25 µM
  TGI: > 100 µM
NCI-H522 lung
  GI50: 2.99 µM
  TGI: 36.8 µM
NCI/ADR-RES ovarian
  GI50: 2.53 µM
  TGI: > 100 µM
UO-31 renal
  GI50: 6.03 µM
  TGI: > 100 µM
SF-539 CNS
  GI50: 2.62 µM
  TGI: > 100 µM
SF-295 CNS
  GI50: 3.06 µM
  TGI: > 100 µM
K-562 leukemia
  GI50: 0.878 µM
  TGI: > 100 µM
SR leukemia
  GI50: 2.02 µM
  TGI: > 100 µM
OVCAR-5 ovarian
  GI50: 4.49 µM
  TGI: > 100 µM
HCC-2998 colon
  GI50: 4.86 µM
  TGI: 93.1 µM
HOP-92 NSCLC
  GI50: 9.89 µM
  TGI: > 100 µM
KM12 colon
  GI50: 3.7 µM
  TGI: > 100 µM
MOLT-4 leukemia
  GI50: 4.24 µM
  TGI: > 100 µM
